Experimental data published in patent publication US20230126391A1, “ALPHA-METHYL-SUBSTITUTED DIAZABICYCLO[4.3.1] DECANE DERIVATIVES FOR TREATMENT OF PSYCHIATRIC DISORDERS” (priority 2020, published 2023).
Where two headings read alike, the source gives them in different places.

Key:
FKBP52 = target: T1, FKBP52 (Homo sapiens, UniProt Q02790); assay: FP assay, binding to human FKBPs (Table 1); conditions: fluorescence polarization assay
T1 sequence (Q02790 1-459): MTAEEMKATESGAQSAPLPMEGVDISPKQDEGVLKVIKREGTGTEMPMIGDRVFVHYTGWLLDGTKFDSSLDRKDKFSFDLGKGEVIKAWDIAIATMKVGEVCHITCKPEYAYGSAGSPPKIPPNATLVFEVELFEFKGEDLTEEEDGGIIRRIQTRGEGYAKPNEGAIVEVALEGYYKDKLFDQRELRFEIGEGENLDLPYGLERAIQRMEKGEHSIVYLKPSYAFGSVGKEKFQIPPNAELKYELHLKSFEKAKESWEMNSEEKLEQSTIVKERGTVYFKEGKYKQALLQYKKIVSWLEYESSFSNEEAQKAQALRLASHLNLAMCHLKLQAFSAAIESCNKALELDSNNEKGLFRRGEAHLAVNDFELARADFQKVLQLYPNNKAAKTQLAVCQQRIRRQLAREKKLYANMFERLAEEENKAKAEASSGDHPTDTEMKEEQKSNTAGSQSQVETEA

FKBP12 = FKBP12 (Homo sapiens, UniProt P62942); assay: FP assay, binding to human FKBPs (Table 1); conditions: fluorescence polarization assay
FKBP12, sequence (P62942 whole entry): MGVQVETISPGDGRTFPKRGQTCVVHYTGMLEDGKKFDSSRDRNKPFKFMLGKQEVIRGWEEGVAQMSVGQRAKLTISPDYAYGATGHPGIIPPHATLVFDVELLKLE

FKBP51 = target: T2, FKBP51 (Homo sapiens, UniProt Q13451); assay: FP assay, binding to human FKBPs (Table 1); conditions: fluorescence polarization assay
T2 sequence (Q13451 1-457): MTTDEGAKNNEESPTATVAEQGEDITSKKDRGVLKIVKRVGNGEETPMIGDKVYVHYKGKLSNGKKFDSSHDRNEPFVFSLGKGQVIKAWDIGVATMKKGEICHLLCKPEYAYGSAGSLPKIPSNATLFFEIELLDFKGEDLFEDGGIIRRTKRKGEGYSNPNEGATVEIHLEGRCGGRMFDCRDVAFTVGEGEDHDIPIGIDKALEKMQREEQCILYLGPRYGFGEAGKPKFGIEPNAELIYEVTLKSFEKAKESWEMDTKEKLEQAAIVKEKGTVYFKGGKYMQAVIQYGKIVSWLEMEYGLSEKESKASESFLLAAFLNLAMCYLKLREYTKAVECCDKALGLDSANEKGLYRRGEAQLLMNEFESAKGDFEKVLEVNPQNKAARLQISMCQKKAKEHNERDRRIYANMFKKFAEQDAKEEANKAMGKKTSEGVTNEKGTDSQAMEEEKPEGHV

FKBP12.6 = FKBP12.6 (Homo sapiens, UniProt P68106); assay: FP assay, binding to human FKBPs (Table 1); conditions: fluorescence polarization assay
FKBP12.6, sequence (P68106 whole entry): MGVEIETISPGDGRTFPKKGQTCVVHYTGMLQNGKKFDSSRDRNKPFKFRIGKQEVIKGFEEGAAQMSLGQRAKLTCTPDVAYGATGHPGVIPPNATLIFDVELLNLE

LpMip = LpMip (Legionella pneumophila subsp. pneumophila, UniProt Q5ZXE0); assay: biochemical; type: binding
LpMip, sequence (Q5ZXE0 21-233 limits assumed): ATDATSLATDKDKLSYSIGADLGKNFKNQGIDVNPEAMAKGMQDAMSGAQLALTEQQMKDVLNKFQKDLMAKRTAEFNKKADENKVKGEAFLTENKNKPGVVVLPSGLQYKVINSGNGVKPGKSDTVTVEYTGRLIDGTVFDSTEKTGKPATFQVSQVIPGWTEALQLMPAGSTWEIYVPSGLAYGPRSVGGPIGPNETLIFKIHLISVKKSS

| SMILES | Ki (FKBP52) [nM] | Ki (FKBP12) [nM] | Ki (FKBP51) [nM] | Ki (FKBP12.6) [nM] | Ki (LpMip; read-out: Ki LpMip) [nM] | Ki (LpMip) [nM] |
| --- | --- | --- | --- | --- | --- | --- |
| C=C[C@H]1CN([C@H](C)CO)C(=O)[C@@H]2CCC[C@H]1N2S(=O)(=O)c1ccc2ncsc2c1 [17b] | > 5000 | > 5000 | > 5000 | – | – | – |
| C=C[C@H]1CN([C@@H](C)COCc2ccccc2)C(=O)[C@@H]2CCC[C@H]1N2S(=O)(=O)c1ccc2ncsc2c1 [16a, (1S,5S,6R)-10-(benzo[d]thiazol-6-ylsulfonyl)-3-((S)-1-(benzyloxy)propan-2-yl)-5-vinyl-3,10-diazabicyclo[4.3.1]decan-2-one] | 316 | 28 | 263 | – | – | – |
| C=C[C@H]1CN([C@@H](C)COCc2ccccc2)C(=O)[C@@H]2CCC[C@H]1N2S(=O)(=O)c1cc(Cl)cc(Cl)c1 [15a, (1S,5S,6R)-3-((S)-1-(benzyloxy)propan-2-yl)-10-((3,5-dichlorophenyl)sulfonyl)-5-vinyl-3,10-diazabicyclo[4.3.1]decan-2-one] | 1030 | 58 | 1080 | – | – | – |
| COC[C@H]1CN(Cc2ccccn2)C(=O)[C@@H]2CCC[C@H]1N2S(=O)(=O)c1cc(Cl)cc(Cl)c1 [24a] | 11 | 0.65 | 12 | 3.4 | 497 | – |
| C=C[C@H]1CN([C@H](C)CO)C(=O)[C@@H]2CCC[C@H]1N2S(=O)(=O)c1cc(Cl)cc(Cl)c1 [20c] | > 5000 | > 5000 | > 5000 | – | – | – |
| C=C[C@H]1CN(CCO)C(=O)[C@@H]2CCC[C@H]1N2S(=O)(=O)c1cc(Cl)cc(Cl)c1 [20a] | 387 | 20 | 403 | – | – | – |
| C=C[C@H]1CN([C@H](C)c2ccccn2)C(=O)[C@@H]2CCC[C@H]1N2S(=O)(=O)c1cc(Cl)cc(Cl)c1 [6e] | > 1000 | 130 | > 1000 | 812 | – | – |
| O=C1[C@@H]2CCC[C@H]([C@@H](CO)CN1Cc1ccccn1)N2S(=O)(=O)c1cc(Cl)cc(Cl)c1 [23a] | 19 | 0.35 | 33 | 3.4 | 467 | – |
| O=C1[C@@H]2CCC[C@H]([C@@H](CO)CN1Cc1ccccn1)N2S(=O)(=O)c1ccc2ncsc2c1 [25a] | 190 | 5.5 | 283 | 3.8 | 3980 | – |
| C=C[C@H]1CN(Cc2cn(-c3ccc(OC)cc3)nn2)C(=O)[C@@H]2CCC[C@H]1N2S(=O)(=O)c1cc(Cl)cc(Cl)c1 [19a] | 361 | 15 | – | 16 | – | – |
| C=C[C@H]1CN([C@@H](C)c2ccccn2)C(=O)[C@@H]2CCC[C@H]1N2S(=O)(=O)c1ccc2ncsc2c1 [7d, (1S,5S,6R)-10-(benzo[d]thiazol-6-ylsulfonyl)-3-((S)-1-(pyridin-2-yl)ethyl)-5-vinyl-3,10-diazabicyclo[4.3.1]decan-2-one] | 29 | 2.2 | 33 | 0.9 | – | 366 |
| C=C[C@H]1CN([C@@H](C)C(=O)O)C(=O)[C@@H]2CCC[C@H]1N2S(=O)(=O)c1cc(Cl)cc(Cl)c1 [21b, (2S)-2-((1S,5S,6R)-10-((3,5-dichlorophenyl)sulfonyl)-2-oxo-5-vinyl-3,10-diazabicyclo[4.3.1]decan-3-yl)propanoic acid] | 80 | 13 | 22 | – | – | 284 |
| CC[C@H]1CN([C@@H](C)c2ccccn2)C(=O)[C@@H]2CCC[C@H]1N2S(=O)(=O)c1ccc2ncsc2c1 [26b, (1S,5S,6R)-10-(benzo[d]thiazol-6-ylsulfonyl)-5-ethyl-3-((S)-1-(pyridin-2-yl)ethyl)-3,10-diazabicyclo[4.3.1]decan-2-one] | 22 | 1.9 | 27 | 0.6 | – | 284 |
| CC[C@H]1CN(Cc2ccccn2)C(=O)[C@@H]2CCC[C@H]1N2S(=O)(=O)c1ccc2ncsc2c1 [26a] | 285 | 6.5 | 410 | 5.2 | 5150 | – |
| C=C[C@H]1CN([C@@H](C)CO)C(=O)[C@@H]2CCC[C@H]1N2S(=O)(=O)c1ccc2ncsc2c1 [17a, (1S,5S,6R)-10-(benzo[d]thiazol-6-ylsulfonyl)-3-((S)-1-hydroxypropan-2-yl)-5-vinyl-3,10-diazabicyclo[4.3.1]decan-2-one] | 102 | 21 | 110 | – | – | – |
| C=C[C@H]1CN([C@H](C)COCc2ccccc2)C(=O)[C@@H]2CCC[C@H]1N2S(=O)(=O)c1ccc2ncsc2c1 [16b] | > 5000 | > 5000 | > 5000 | – | – | – |
| C=C[C@H]1CN(Cc2ccccn2)C(=O)[C@@H]2CCC[C@H]1N2S(=O)(=O)c1ccc2ncsc2c1 [7a] | 276 | 7.5 | 294 | 6 | 5840 | – |
| C[C@@H](c1ccccn1)N1C[C@H](CO)[C@H]2CCC[C@@H](C1=O)N2S(=O)(=O)c1ccc2ncsc2c1 [25b, (1S,5S,6R)-10-(benzo[d]thiazol-6-ylsulfonyl)-5-(hydroxymethyl)-3-((S)-1-(pyridin-2-yl)ethyl)-3,10-diazabicyclo[4.3.1]decan-2-one] | – | 1.5 | – | 0.7 | – | 237 |
| C=C[C@H]1CN([C@@H](C)c2ccccn2)C(=O)[C@@H]2CCC[C@H]1N2S(=O)(=O)c1cc(Cl)cc(Cl)c1 [6d, (1S,5S,6R)-10-((3,5-dichlorophenyl)sulfonyl)-3-((S)-1-(pyridin-2-yl)ethyl)-5-vinyl-3,10-diazabicyclo[4.3.1]decan-2-one] | 2.2 | 0.15 | 2.6 | 0.41 | – | 171 |
| C=C[C@H]1CN([C@@H](C)COC)C(=O)[C@@H]2CCC[C@H]1N2S(=O)(=O)c1cc(Cl)cc(Cl)c1 [22b, (1S,5S,6R)-10-((3,5-dichlorophenyl)sulfonyl)-3-((S)-1-methoxypropan-2-yl)-5-vinyl-3,10-diazabicyclo[4.3.1]decan-2-one] | 205 | 14 | 204 | – | – | – |
| C=C[C@H]1CN([C@H](C)c2ccccn2)C(=O)[C@@H]2CCC[C@H]1N2S(=O)(=O)c1ccc2ncsc2c1 [7e] | 3450 | 240 | 4550 | 157 | – | – |
| C=C[C@H]1CN(CCOC)C(=O)[C@@H]2CCC[C@H]1N2S(=O)(=O)c1cc(Cl)cc(Cl)c1 [22a] | 377 | 59 | 529 | – | – | – |
| C[C@@H](c1ccccn1)N1C[C@H](CO)[C@H]2CCC[C@@H](C1=O)N2S(=O)(=O)c1cc(Cl)cc(Cl)c1 [23b, (1S,5S,6R)-10-((3,5-dichlorophenyl)sulfonyl)-5-(hydroxymethyl)-3-((S)-1-(pyridin-2-yl)ethyl)-3,10-diazabicyclo[4.3.1]decan-2-one] | 1.2 | 0.06 | 1.9 | 0.31 | – | 36 |
| C=C[C@H]1CN([C@H](C)COCc2ccccc2)C(=O)[C@@H]2CCC[C@H]1N2S(=O)(=O)c1cc(Cl)cc(Cl)c1 [15b] | > 5000 | > 5000 | > 5000 | – | – | – |
| C=C[C@H]1CN([C@H](C)COC)C(=O)[C@@H]2CCC[C@H]1N2S(=O)(=O)c1cc(Cl)cc(Cl)c1 [22c] | > 5000 | > 5000 | > 5000 | – | – | – |
| C=C[C@H]1CN([C@H](C)C(=O)O)C(=O)[C@@H]2CCC[C@H]1N2S(=O)(=O)c1cc(Cl)cc(Cl)c1 [21c] | 296 | 48 | 123 | – | – | – |
| C=C[C@H]1CN([C@H](C)c2cn(-c3ccc(OC)cc3)nn2)C(=O)[C@@H]2CCC[C@H]1N2S(=O)(=O)c1cc(Cl)cc(Cl)c1 [19c] | 1030 | 233 | – | 390 | – | – |
| C=C[C@H]1CN([C@@H](C)c2cn(-c3ccc(OC)cc3)nn2)C(=O)[C@@H]2CCC[C@H]1N2S(=O)(=O)c1cc(Cl)cc(Cl)c1 [19b, (1S,5S,6R)-10-((3,5-dichlorophenyl)sulfonyl)-3-((S)-1-(1-(4-methoxyphenyl)-1H-1,2,3-triazol-4-yl)ethyl)-5-vinyl-3,10-diazabicyclo[4.3.1]decan-2-one] | 91 | 4.3 | – | 16 | – | – |
| C=C[C@H]1CN(CC(=O)O)C(=O)[C@@H]2CCC[C@H]1N2S(=O)(=O)c1cc(Cl)cc(Cl)c1 [21a] | 320 | 33.4 | 172 | – | 5150 | – |
| C=C[C@H]1CN([C@@H](C)CO)C(=O)[C@@H]2CCC[C@H]1N2S(=O)(=O)c1cc(Cl)cc(Cl)c1 [20b, (1S,5S,6R)-10-((3,5-dichlorophenyl)sulfonyl)-3-((S)-1-hydroxypropan-2-yl)-5-vinyl-3,10-diazabicyclo[4.3.1]decan-2-one] | 116 | 3.5 | 107 | – | – | – |
